Patent US20020187514A1 (priority 1999, published 2002)

How the values were obtained:
[1] = tested on: Glutamic Acid Decarboxylase; assay: Glutamic Acid Decarboxylase; substrate [14C]Glutamic acid; format: biochemical; details: 10^−5 M
[2] = molecular target: T1, Dopamine, D4.4 (Homo sapiens, UniProt P21917); assay: biochemical; format: binding; details: read-out: Pass 1 (10^−5 M) % Inhibition
T1 construct: expressed in transfected cells

[3] = tested on: Glutamate, AMPA Site; assay: Glutamate, AMPA Site; [3H]AMPA; format: binding; details: 10^−5 M
[4] = tested on: GABA Transport; format: biochemical; details: 10^−5 M
[5] = tested on: Inositol Triphosphate, IP3; assay: Inositol Triphosphate, IP3; [3H]IP3; format: binding; details: 10^−5 M
[6] = tested on: Estrogen; assay: Estrogen; [125I]3,17B-Estradiol, 16a; format: binding; details: 10^−5 M
[7] = tested on: Ahenylate Cyclase, Forskolin; assay: Ahenylate Cyclase, Forskolin; [3H]Forskolin; format: binding; details: 10^−5 M
[8] = molecular target: Adrenergic, Alpha 2B (UniProt P19328); format: binding
Adrenergic, Alpha 2B, sequence (P19328 whole entry): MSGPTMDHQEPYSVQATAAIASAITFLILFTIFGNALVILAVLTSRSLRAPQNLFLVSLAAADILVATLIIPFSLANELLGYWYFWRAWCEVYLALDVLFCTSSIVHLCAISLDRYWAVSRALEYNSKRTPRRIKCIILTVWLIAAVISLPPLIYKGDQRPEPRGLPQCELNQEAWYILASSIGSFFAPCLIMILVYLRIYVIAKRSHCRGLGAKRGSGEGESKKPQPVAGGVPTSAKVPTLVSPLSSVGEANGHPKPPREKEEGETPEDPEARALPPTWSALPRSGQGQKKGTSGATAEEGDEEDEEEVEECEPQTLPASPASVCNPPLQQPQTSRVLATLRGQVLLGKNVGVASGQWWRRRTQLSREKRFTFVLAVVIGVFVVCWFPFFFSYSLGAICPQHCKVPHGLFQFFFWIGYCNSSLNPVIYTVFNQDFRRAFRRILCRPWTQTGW

[9] = molecular target: T2, Cannabinoid, CB1 (Homo sapiens, UniProt P21554); assay: Cannabinoid, CB1 (Human recombinant); [3H]-CP55940; format: binding; details: read-out: Pass 1 (10^−5 M) % Inhibition
T2 construct: expressed in transfected cells

[10] = molecular target: GABA A, BDZ, alpha 1, central (Bos taurus, UniProt P08219+P22300); assay: biochemical; details: read-out: Pass 1 (10^−5 M) % Inhibition
[11] = tested on: Adenosine Transport (cs + es); assay: Adenosine Transport (cs + es) (Human); [3H]-Adenosine; format: biochemical; details: 10^−5 M
[12] = tested on: Melatonin; assay: Melatonin; [125I]-2-Iodomelatonin; format: binding; details: 10^−5 M
[13] = tested on: Esterase; assay: Esterase (Human); substrate Acetylthiocholine; format: biochemical
[14] = molecular target: Opiate, Mu (UniProt P33535); format: binding
[15] = tested on: Neurokinin, NK3 (NKB); format: binding; details: 10^−5 M
[16] = molecular target: Protein Phosphatase, PP2A (Homo sapiens, UniProt P67775); assay: Protein Phosphatase, PP2A (Human); substrate DiFMUP; format: biochemical; details: read-out: Pass 1 (10^−5 M) % Inhibition
Protein Phosphatase, PP2A, sequence (P67775 whole entry): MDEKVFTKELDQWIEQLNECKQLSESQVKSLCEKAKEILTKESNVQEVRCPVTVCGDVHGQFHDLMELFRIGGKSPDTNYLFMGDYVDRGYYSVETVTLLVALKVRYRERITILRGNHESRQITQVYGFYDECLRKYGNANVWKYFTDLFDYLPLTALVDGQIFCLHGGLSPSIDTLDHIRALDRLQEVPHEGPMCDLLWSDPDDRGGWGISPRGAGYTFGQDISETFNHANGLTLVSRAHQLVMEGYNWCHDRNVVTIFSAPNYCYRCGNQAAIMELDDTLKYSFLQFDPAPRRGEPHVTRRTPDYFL

[17] = tested on: Histamine, H3; assay: Histamine, H3; [3H]N-a-MeHistamine; format: binding; details: 10^−5 M
[18] = molecular target: T3, Orphanin (Homo sapiens, UniProt P41146); assay: biochemical; format: binding; details: read-out: Pass 1 (10^−5 M) % Inhibition
T3 construct: expressed in transfected cells

[19] = molecular target: Protein Tyrosine Phosphatase, PTP-CD45 (Homo sapiens, UniProt P08575); assay: Protein Tyrosine Phosphatase, PTP-CD45 (Human); substrate pNPP; format: biochemical; details: read-out: Pass 1 (10^−5 M) % Inhibition
Protein Tyrosine Phosphatase, PTP-CD45, sequence (P08575 26-1306): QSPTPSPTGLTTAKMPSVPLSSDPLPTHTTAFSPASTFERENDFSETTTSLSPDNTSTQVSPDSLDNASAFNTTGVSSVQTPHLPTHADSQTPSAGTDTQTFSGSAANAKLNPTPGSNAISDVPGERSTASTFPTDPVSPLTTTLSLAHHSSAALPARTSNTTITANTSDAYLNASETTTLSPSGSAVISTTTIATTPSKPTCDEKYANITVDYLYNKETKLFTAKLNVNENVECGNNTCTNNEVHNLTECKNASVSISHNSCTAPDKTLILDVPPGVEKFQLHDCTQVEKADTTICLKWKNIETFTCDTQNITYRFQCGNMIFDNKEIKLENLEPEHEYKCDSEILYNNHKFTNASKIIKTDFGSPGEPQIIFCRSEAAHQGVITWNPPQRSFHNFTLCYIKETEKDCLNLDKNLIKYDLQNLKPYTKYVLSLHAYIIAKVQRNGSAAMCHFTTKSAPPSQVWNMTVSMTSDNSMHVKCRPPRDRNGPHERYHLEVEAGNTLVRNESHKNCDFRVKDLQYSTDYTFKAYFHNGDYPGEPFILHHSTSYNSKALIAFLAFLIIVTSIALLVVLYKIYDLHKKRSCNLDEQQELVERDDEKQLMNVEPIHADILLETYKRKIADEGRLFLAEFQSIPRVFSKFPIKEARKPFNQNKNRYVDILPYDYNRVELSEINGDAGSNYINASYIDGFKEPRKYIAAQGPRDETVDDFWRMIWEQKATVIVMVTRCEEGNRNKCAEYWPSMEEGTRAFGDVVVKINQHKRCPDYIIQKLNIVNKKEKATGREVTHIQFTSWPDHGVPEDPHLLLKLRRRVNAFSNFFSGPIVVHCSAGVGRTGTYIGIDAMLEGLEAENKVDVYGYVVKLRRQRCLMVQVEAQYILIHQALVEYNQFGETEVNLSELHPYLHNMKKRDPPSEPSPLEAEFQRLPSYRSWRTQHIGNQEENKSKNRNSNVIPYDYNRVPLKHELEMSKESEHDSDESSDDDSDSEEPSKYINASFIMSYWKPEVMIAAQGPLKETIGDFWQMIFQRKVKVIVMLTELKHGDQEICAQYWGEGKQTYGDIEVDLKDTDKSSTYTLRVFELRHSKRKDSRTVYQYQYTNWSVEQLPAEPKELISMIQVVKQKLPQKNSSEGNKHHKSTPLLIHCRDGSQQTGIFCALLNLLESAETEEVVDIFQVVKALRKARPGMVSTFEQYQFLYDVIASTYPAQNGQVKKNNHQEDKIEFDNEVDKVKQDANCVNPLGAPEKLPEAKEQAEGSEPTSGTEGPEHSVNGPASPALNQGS

[20] = tested on: Somatostatin, Non-selective; assay: Somatostatin, Non-selective; [125]-Somatostatin-14 (Tyr11); format: binding; details: 10^−5 M
[21] = molecular target: Adrenergic, Alpha 2A (Homo sapiens, UniProt P08913); assay: Adrenergic, Alpha 2A (Human); [3H]MK-912; format: binding; details: read-out: Pass 1 (10^−5 M) % Inhibition
[22] = molecular target: Adenosine Transport (es) (Homo sapiens, UniProt Q99808); assay: biochemical; details: read-out: Pass 1 (10^−5 M) % Inhibition
[23] = molecular target: Serotonin, 5HT2A (Homo sapiens, UniProt P28223); assay: biochemical; format: binding; details: read-out: Pass 1 (10^−5 M) % Inhibition
Serotonin, 5HT2A, sequence (P28223 whole entry): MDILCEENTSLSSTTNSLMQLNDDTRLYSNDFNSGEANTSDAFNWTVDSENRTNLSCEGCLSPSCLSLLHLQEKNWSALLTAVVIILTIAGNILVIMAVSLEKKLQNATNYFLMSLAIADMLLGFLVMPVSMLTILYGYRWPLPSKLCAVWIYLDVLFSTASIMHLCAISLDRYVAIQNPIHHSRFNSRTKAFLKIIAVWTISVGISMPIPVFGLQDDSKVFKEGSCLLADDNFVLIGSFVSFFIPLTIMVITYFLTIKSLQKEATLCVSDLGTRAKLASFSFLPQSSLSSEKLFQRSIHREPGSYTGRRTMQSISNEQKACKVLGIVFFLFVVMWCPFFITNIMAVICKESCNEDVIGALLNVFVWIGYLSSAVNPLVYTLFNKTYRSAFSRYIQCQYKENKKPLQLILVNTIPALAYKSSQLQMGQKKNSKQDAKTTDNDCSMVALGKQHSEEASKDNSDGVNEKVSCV

[24] = tested on: Serotonin, 5HT1A; format: binding
[25] = tested on: Sodium, Site 2; format: binding
[26] = molecular target: T4, Thromboxane A2 (Homo sapiens, UniProt P21731); assay: Thromboxane A2 (Human); [3H]SQ 29,548; format: binding; details: read-out: Pass 1 (10^−5 M) % Inhibition
T4 construct: from human cell lines; endogenous in cells

[27] = molecular target: T5, Serotonin, 5HT7 (Homo sapiens, UniProt P34969); assay: biochemical; format: binding; details: read-out: Pass 1 (10^−5 M) % Inhibition
T5 construct: expressed in transfected cells

[28] = tested on: GABA, Chloride, TBOB Site; format: binding
[29] = molecular target: T6, Muscarinic, M5 (Homo sapiens, UniProt P08912); assay: biochemical; format: binding; details: read-out: Pass 1 (10^−5 M) % Inhibition
T6 construct: expressed in transfected cells

[30] = molecular target: Calcium Channel, Type L (Dihydropyridine Site) (Rattus norvegicus, UniProt P22002); assay: Calcium Channel, Type L (Dihydropyridine Site); [3H]Nitrendipine; format: binding; details: read-out: Pass 1 (10^−5 M) % Inhibition
[31] = molecular target: T7, Adenosine, A2A (Homo sapiens, UniProt P29274); assay: biochemical; format: binding; details: read-out: Pass 1 (10^−5 M) % Inhibition
T7 construct: expressed in transfected cells
T7 sequence (P29274 whole entry): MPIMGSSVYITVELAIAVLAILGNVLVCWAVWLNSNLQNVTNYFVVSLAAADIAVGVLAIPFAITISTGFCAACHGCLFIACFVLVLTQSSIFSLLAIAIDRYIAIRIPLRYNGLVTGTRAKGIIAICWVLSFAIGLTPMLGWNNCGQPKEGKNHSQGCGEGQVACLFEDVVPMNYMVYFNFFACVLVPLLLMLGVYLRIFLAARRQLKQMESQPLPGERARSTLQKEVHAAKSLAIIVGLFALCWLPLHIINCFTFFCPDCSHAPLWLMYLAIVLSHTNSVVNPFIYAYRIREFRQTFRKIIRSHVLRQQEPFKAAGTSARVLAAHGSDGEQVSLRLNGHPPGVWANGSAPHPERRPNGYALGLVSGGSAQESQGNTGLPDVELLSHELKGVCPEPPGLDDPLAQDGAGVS

[32] = molecular target: T8, Serotonin, 5HT6 (Homo sapiens, UniProt P50406); assay: biochemical; format: binding; details: read-out: Pass 1 (10^−5 M) % Inhibition
T8 construct: expressed in transfected cells
T8 sequence (P50406 whole entry): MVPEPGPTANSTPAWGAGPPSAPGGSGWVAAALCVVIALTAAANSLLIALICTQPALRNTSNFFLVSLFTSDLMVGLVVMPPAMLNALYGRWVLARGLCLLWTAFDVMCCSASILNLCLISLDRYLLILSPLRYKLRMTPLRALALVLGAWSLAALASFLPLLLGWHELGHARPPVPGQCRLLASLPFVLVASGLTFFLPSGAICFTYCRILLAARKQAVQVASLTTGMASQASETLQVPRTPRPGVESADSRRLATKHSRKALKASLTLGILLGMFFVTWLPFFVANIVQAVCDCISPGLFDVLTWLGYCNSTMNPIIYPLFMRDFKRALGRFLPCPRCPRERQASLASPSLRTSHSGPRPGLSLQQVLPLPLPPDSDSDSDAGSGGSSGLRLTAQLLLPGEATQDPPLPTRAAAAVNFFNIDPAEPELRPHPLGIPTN

[33] = tested on: Leukotrine D4, LTB4; assay: Leukotrine D4, LTB4; [3H]LTD4; format: binding; details: 10^−5 M
[34] = molecular target: T9, Sigma 1 (Cavia porcellus, UniProt Q60492); assay: Sigma 1; [3H]-(+)-Pentazocine; format: binding, guinea pig
T9 construct: Fresh guinea pig whole brain was obtained following decapitation; from tissue; host or cells: guinea pig whole brain membranes
T9 sequence (Q60492 whole entry): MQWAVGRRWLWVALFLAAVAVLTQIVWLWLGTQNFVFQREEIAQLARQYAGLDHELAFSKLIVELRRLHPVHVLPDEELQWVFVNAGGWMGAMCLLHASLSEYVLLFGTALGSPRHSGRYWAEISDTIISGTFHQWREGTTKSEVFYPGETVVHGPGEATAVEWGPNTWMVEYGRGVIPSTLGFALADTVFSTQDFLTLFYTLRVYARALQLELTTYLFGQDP

[35] = molecular target: T10, Endothelin, ET-B (Homo sapiens, UniProt P24530); assay: biochemical; format: binding; details: read-out: Pass 1 (10^−5 M) % Inhibition
T10 construct: expressed in transfected cells

[36] = molecular target: T11, Platelet Activating Factor, PAF (Oryctolagus cuniculus, UniProt G1TEI7); assay: Platelet Activating Factor, PAF; [3H]Hexadecyl, PAF; format: binding; details: read-out: Pass 1 (10^−5 M) % Inhibition
T11 construct: no other source notation after assay name denotes animal cell or animal tissue source; from tissue
T11 sequence (G1TEI7 entry or part of it): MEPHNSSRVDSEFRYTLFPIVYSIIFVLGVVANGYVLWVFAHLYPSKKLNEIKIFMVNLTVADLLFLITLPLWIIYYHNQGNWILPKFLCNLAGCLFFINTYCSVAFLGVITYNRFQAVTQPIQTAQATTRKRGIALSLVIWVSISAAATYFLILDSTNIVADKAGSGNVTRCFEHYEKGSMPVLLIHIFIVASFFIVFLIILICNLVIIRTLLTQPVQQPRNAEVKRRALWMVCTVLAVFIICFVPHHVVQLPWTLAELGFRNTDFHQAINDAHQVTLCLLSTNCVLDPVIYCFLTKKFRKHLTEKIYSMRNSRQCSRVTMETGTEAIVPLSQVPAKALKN

[37] = tested on: Protein Phosphatase, PP2B (Calcineurin); assay: Protein Phosphatase, PP2B (Calcineurin); substrate pNPP; format: biochemical; details: 10^−5 M
[38] = tested on: Glutamate, MK-801 Site; assay: Glutamate, MK-801 Site; [3H]MK-801; format: binding; details: 10^−5 M
[39] = molecular target: Opiate, Delta 1 (UniProt P33533); format: binding
Opiate, Delta 1, sequence (P33533 whole entry): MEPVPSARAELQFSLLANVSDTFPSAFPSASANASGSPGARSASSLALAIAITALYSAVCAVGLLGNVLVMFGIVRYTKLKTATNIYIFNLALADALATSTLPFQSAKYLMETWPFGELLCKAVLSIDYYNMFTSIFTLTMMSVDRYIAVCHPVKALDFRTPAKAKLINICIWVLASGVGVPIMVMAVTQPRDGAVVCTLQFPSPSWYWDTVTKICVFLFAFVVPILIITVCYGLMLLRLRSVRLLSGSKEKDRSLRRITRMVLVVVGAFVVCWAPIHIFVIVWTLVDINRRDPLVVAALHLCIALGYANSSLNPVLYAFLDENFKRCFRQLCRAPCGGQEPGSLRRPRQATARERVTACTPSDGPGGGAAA

[40] = tested on: Glutamate Transport; assay: Glutamate Transport; [3H]Glutamic Acid; format: biochemical; details: 10^−5 M
[41] = molecular target: T12, Opiate, Kappa (Homo sapiens, UniProt P41145); assay: biochemical; format: binding; details: read-out: Pass 1 (10^−5 M) % Inhibition
T12 construct: expressed in transfected cells

[42] = molecular target: Vasopressin, V1A (Homo sapiens, UniProt P37288); assay: Vasopressin, V1A (Human); [125I]-Via Antagonist; format: binding; details: read-out: Pass 1 (10^−5 M) % Inhibition
Vasopressin, V1A, sequence (P37288 whole entry): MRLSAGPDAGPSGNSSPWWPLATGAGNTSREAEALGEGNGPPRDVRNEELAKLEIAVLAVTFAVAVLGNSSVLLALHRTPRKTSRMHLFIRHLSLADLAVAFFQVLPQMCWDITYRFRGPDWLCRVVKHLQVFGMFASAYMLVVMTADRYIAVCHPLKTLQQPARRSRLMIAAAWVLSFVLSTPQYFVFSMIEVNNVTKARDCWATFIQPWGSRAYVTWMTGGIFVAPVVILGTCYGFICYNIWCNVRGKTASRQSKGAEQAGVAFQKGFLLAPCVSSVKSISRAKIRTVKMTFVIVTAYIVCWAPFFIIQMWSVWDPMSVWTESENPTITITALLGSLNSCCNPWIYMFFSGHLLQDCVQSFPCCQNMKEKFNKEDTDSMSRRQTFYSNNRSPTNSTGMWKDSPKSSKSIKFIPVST

SMILES: COC(=O)[C@H]1[C@@H](OC(=O)c2ccccc2)C[C@@H]2CC[C@H]1N2C [cocaine]
- Pass 1 (10^−5 M) % Inhibition [1]: −1.39%
- inhibition at 10 µM [2]: 18.8%
- Pass 1 (10^−5 M) % Inhibition [3]: −9.30%
- Pass 1 (10^−5 M) % Inhibition [4]: −19.43%
- Pass 1 (10^−5 M) % Inhibition [5]: −19.14%
- Pass 1 (10^−5 M) % Inhibition [6]: 12.80%
- Pass 1 (10^−5 M) % Inhibition [7]: 6.27%
- Pass 1 (10^−5 M) % Inhibition [8]: −3.82%
- inhibition at 10 µM [9]: 33.4%
- inhibition at 10 µM [10]: 9.58%
- Pass 1 (10^−5 M) % Inhibition [11]: 2.79%
- Pass 1 (10^−5 M) % Inhibition [12]: 16.13%
- Pass 1 (10^−5 M) % Inhibition [13]: 31.58%
- Pass 1 (10^−5 M) % Inhibition [14]: −4.22%
- Pass 1 (10^−5 M) % Inhibition [15]: −15.24%
- inhibition at 10 µM [16]: 15.3%
- Pass 1 (10^−5 M) % Inhibition [17]: −4.60%
- inhibition at 10 µM [18]: 32.3%
- inhibition at 10 µM [19]: 12%
- Pass 1 (10^−5 M) % Inhibition [20]: −3.54%
- inhibition at 10 µM [21]: 15.3%
- inhibition at 10 µM [22]: 47.5%
- inhibition at 10 µM [23]: 23.4%
- Pass 1 (10^−5 M) % Inhibition [24]: 0.52%
- Pass 1 (10^−5 M) % Inhibition [25]: 36.80%
- inhibition at 10 µM [26]: 22.1%
- inhibition at 10 µM [27]: 26.8%
- Pass 1 (10^−5 M) % Inhibition [28]: 8.40%
- inhibition at 10 µM [29]: 6.01%
- inhibition at 10 µM [30]: 10.2%
- inhibition at 10 µM [31]: 25.9%
- inhibition at 10 µM [32]: 1.13%
- Pass 1 (10^−5 M) % Inhibition [33]: −17.11%
- Ki [34]: 11.6 µM
- inhibition at 10 µM ([34]; read-out: Pass 1 (10^−5 M) % Inhibition): 64.7%
- inhibition at 10 µM [35]: 0.19%
- inhibition at 10 µM [36]: 12.6%
- Pass 1 (10^−5 M) % Inhibition [37]: −10.37%
- Pass 1 (10^−5 M) % Inhibition [38]: −2.86%
- Pass 1 (10^−5 M) % Inhibition [39]: 2.51%
- Pass 1 (10^−5 M) % Inhibition [40]: 24.20%
- inhibition at 10 µM [41]: 1.87%
- inhibition at 10 µM [42]: -4.37%
